Experiments:
[1] = Solubility of Coenzyme Q10 (properties); type: physicochemical
Text: Coenzymes Q used in the present invention, for example, Coenzyme Q10 (the compound in which n = 10 in the above formula), can be mainly obtained synthetically, although it is possible to extract Coenzyme Q from animal organs. The physical and chemical properties of Coenzyme Q10 produced synthetically are as follows.

rats of Wistar strain [2] = experiment: Subacute oral toxicity test in rats (5 weeks); type: in vivo, rat (Wistar strain)
Description: (§1) Coenzyme Q10 was compulsorily and orally administered every day for 5 weeks to each group consisting of 10 male rats and 10 female rats of Wistar strain. The dose was 40, 200, and 1000 mg/Kg/day, respectively. Coenzyme Q10 was used in the form of gum Arabic suspension, while the solution containing gum Arabic alone was used as the control group. Collection of blood and urine samples and autopsies were carried out 5 weeks after the initiation of administration.

[3] = tested on: pancreas external secretion; experiment: Quantity of pancreatic juice secreted after pancreozymin in anesthetized rats; type: in vivo, rat (male Wistar)
Description: (§2) Male Wistar rats weighing 300-400 g were fasted for 14-20 hours and then anesthetized with 1 g/Kg of urethane. A stainless steel tube was inserted into the common bile duct at the opening to the duodenum and fixed thereto (pancreatic cannula) to take out pancreatic juice. The common bile duct was ligated at an upper portion and a polyethylene tube was inserted into the bile duct and fixed thereto to allow the bile to flow outward. The pylorus was ligated. The medicament was administered into a femoral vein through the polyethylene tube.
(§3) The quantity of the pancreatic juice was measured by using a calibrated silicone rubber tube fitted to the pancreatic duct cannula. The tube was changed every 10 minutes.
(§4) Coenzyme Q10 was solubilized in water with Nikkol HCO-60 before use. An aqueous solution of Nikkol HCO-60 was used as placebo.
(§5) Coenzyme Q10 (3 mg/100 g body weight) and the placebo were administered to the rats through the femoral vein. After 60 minutes, pancreozymin (0.2 Crick, Harper and Raper unit/100 g body weight) was administered through the femoral vein.
(§6) FIGS. 1 and 2 show the quantities of pancreatic juice secreted when placebo was administered and when Coenzyme Q10 was administered, respectively. In FIGS. 1 and 2, the ordinates represent the quantity of the pancreatic juice secreted (μl/min./100 g body weight) and the abscissae represent time (min.). FIGS. 3 and 4 show the quantities of amylase secreted when placebo was administered and when Coenzyme Q10 was administered, respectively. In FIGS. 3 and 4, the ordinates represent quantity of amylase secreted (unit/min./100 g body weight) and the abscissae represent time (min.). In FIGS. 1-4, the values are average values ± standard deviation. The arrows in the figures indicate the times when Coenzyme Q10, placebo and pancreozymin were administered.

[4] = tested on: amylase of the pancreatic juice; experiment: Quantity of amylase secreted in pancreatic juice after pancreozymin in anesthetized rats; type: in vivo, rat (male Wistar)
Description: as §2, §3
Amylase activity of the pancreatic juice was determined by Kanno's method [Journal of Physiology (London) Vol. 245, P. 599 (1975)]. One amylase unit indicates a unit of amylase activity producing 1 mg of maltose by incubation of 37° C for 5 minutes.
as §4, §5, §6

mice of ICR-JCL strain = experiment: Acute toxicity test in mice (single high dose); type: in vivo, mouse (ICR-JCL strain)
Text: (§7) In order to evaluate the acute toxicity of a single high dose administration of Coenzyme Q10, male and female rats of Wistar strain and male and female mice of ICR-JCL strain were used, and oral, intramuscular, subcutaneous, and intravenous administrations were studied. For the oral administration of Coenzyme Q10, a gum Arabic suspension was used. For the intramuscular, subcutaneous and intravenous administrations, Coenzyme Q10 was used as a solution containing a nonionic surfactant, Nikkol HCO-60 . Nikkol HCO-60 is a trade mark of a non-ionic surfacent comprised of hydrogenated castor oil/polyoxyethylene-60 mole ether available from Nikko Chemicals, Co. Ltd., Japan.
(§8) Observation was carried out for 7 days by using six males and six females for each dose group.

rabbits = experiment: Subacute oral toxicity test in rabbits (23 days); type: in vivo, rabbit
Description: Coenzyme Q10 was compulsorily and orally administered every day for 23 days to each group consisting of six male rabbits and five female rabbits. The dose was 6, 60 and 600 mg/Kg/day, respectively. Coenzyme Q10 was used in the form of gum Arabic suspension, whereas the solution containing gum Arabic alone was used as the control group, On the 24th day, blood samples were collected from all the animals, and three males and two females from each group were then selectively autopsied.

rats of Wistar strain [5] = experiment: Acute toxicity test in rats (single high dose); type: in vivo, rat (Wistar strain)
Text: as §7, §8

[6] = Overall conclusion of acute, subacute, chronic toxicity and teratogenesis tests; type: in vivo; settings: conclusion from all toxicity tests
Text: as §7, §8, §1
Coenzyme Q10 was compulsorily and orally administered every day for 23 days to each group consisting of six male rabbits and five female rabbits. […]

rats = experiment: Teratogenesis test in rats; type: in vivo, rat; settings: rats, 6, 60, 600 mg/Kg/day
rats of Wistar strain [7] = experiment: Chronic oral toxicity test in rats (26 weeks); type: in vivo, rat (Wistar strain)
Description: Coenzyme Q10 was compulsorily and orally administered to each group consisting of 10 male rats and 10 female rats of Wistar strain for consecutive 26 weeks in a ratio of 6 days a week. The dose was 6, 60 and 600 mg/Kg/day, respectively. Coenzyme Q10 was used in the form of gum Arabic suspension, whereas the solution containing gum Arabic alone is used as the control group. Collection of blood and urine samples and autopsies were carried out 26 weeks after the administration.

mice = experiment: Teratogenesis test in mice; type: in vivo, mouse; settings: mice, 6, 60, 600 mg/Kg/day
[8] = 40, 200, 1000 mg/Kg/day oral, 5 weeks
[9] = 3 mg/100 g femoral vein, after pancreozymin
[10] = 10 minutes after pancreozymin, Coenzyme Q10 3 mg/100 g i.v. (femoral vein) 60 minutes before
[11] = any administration group, 7 days
[12] = intramuscular, Nikkol HCO-60 solution, single dose, 7 days
[13] = intravenous, Nikkol HCO-60 solution, single dose, 7 days
[14] = maximum dose in each administration route
[15] = oral, gum Arabic suspension, single dose, 7 days observation
[16] = relative to maximum doses of Table 1
[17] = subcutaneous, Nikkol HCO-60 solution, single dose, 7 days
[18] = 6, 60, 600 mg/Kg/day oral, 23 days
[19] = 6, 60, 600 mg/Kg/day oral, 26 weeks
[20] = spontaneous pneumonia and aspiration pneumonia due to erroneous administration, dose group not stated

COC1=C(OC)C(=O)C(C/C=C(\C)CC/C=C(\C)CC/C=C(\C)CC/C=C(\C)CC/C=C(\C)CC/C=C(\C)CC/C=C(\C)CC/C=C(\C)CC/C=C(\C)CCC=C(C)C)=C(C)C1=O [Coenzyme Q10]
solubility in acetone ([1]; acetone): soluble
solubility in benzene ([1]; benzene): easily soluble
solubility in carbon tetrachloride ([1]; carbon tetrachloride): easily soluble
solubility in chloroform ([1]; chloroform): easily soluble
solubility in ethanol ([1]; ethanol): insoluble
solubility in ether ([1]; ether): soluble
solubility in methanol ([1]; methanol): hardly soluble
solubility in water ([1]; water): hardly soluble
general condition and body weight versus control group (rats of Wistar strain [2]; [8]): no difference
hematological test and biochemical test of blood and urine (rats of Wistar strain [2]; [8]): No significant change was recognized
weight of each organ (rats of Wistar strain [2]; [8]): no significant change
macroscopical and histological observation (rats of Wistar strain [2]; hematoxylin-eosine staining and liver fat staining, 5 weeks): abnormality was not recognized
toxicity (conclusion) (rats of Wistar strain [2]; oral, 5 weeks): there was not recognized the toxicity seemingly due to the administration
dead animals during the experiment (rats of Wistar strain [2]; spontaneous pneumonia and aspiration pneumonia due to error of administration, dose group not stated): four
fourth response, quantity of pancreatic juice, P versus placebo [3, 9]: < 0.05
quantity of pancreatic juice secreted, comparison with placebo group [3, 9]: significantly superior
second response, quantity of pancreatic juice, P versus placebo [3, 9]: < 0.02
third response, quantity of pancreatic juice, P versus placebo [3, 9]: < 0.02
first response, quantity of pancreatic juice secreted, ratio to placebo group [3, 10]: about 1.5 times
second through fourth responses, quantity of amylase, P versus placebo ([4]; 3 mg/100 g femoral vein, after pancreozymin, all cases): higher than 0.05
first response, quantity of amylase secreted, ratio to placebo group [4, 10]: about 1.6 times
quantity of amylase secreted, comparison with placebo group ([4]; second through fourth responses, 3 mg/100 g femoral vein, after pancreozymin): significantly superior
acute toxicity (conclusion) (mice of ICR-JCL strain): extremely low
general condition, body weight, food intake, autopsy findings (mice of ICR-JCL strain; [11]): no change was recognized
Maximum dose (no case of deaths), intramuscular (mice of ICR-JCL strain; [12]): 500 mg/kg
Maximum dose (no case of deaths), intravenous (mice of ICR-JCL strain; [13]): 250 mg/kg
deaths (mice of ICR-JCL strain; [14]): no case of deaths
Maximum dose (no case of deaths), oral (mice of ICR-JCL strain; [15]): 4000 mg/kg
LD50 (mice of ICR-JCL strain; [16]): far higher than the maximum dose mentioned above
Maximum dose (no case of deaths), subcutaneous (mice of ICR-JCL strain; [17]): 500 mg/kg
general condition and increase of body weight versus control group (rabbits; [18]): no difference
hematological test and biochemical test of blood (rabbits; [18]): Abnormal findings were not obtained
weight of each organ (rabbits; [18]): no effect on the weight of each organ
electron-microscopic observation of liver (rabbits; 7th, 14th and 24th days): there were not recognized abnormal findings on the minute structure of the liver
macroscopical and histological observation (rabbits; hematoxylin-eosine staining and liver fat staining): abnormalities were not recognized
toxicity (conclusion) (rabbits; oral, 23 days): there were not recognized the findings wherein the toxicity of Coenzyme Q10 will be suggested
acute toxicity (conclusion) (rats of Wistar strain [5]): extremely low
general condition, body weight, food intake, autopsy findings (rats of Wistar strain [5]; [11]): no change was recognized
Maximum dose (no case of deaths), intramuscular (rats of Wistar strain [5]; [12]): 500 mg/kg
Maximum dose (no case of deaths), intravenous (rats of Wistar strain [5]; [13]): 250 mg/kg
deaths (rats of Wistar strain [5]; [14]): no case of deaths
Maximum dose (no case of deaths), oral (rats of Wistar strain [5]; [15]): 4000 mg/kg
LD50 (rats of Wistar strain [5]; [16]): far higher than the maximum dose mentioned above
Maximum dose (no case of deaths), subcutaneous (rats of Wistar strain [5]; [17]): 500 mg/kg
overall safety [6]: a very safe drug, without side-effects
adverse effects in mothers, fetuses and newborns (rats): no adverse effects were noted
body weight (rats of Wistar strain [7]; [19]): increased the same as that of the control group
general condition versus control group (rats of Wistar strain [7]; [19]): no difference
weights of organs (rats of Wistar strain [7]; 26 weeks): no significant increase and decrease
leukocytal percentages (rats of Wistar strain [7]; hematological findings, 26 weeks): some increase and decrease, but do not provide the mutual relation depending upon the dose; the percentages being within the range of physiological fluctuations
macroscopical and histological observation (rats of Wistar strain [7]; hematoxylin-eosine staining and liver fat staining, versus control group): abnormalities were not recognized
toxicity (conclusion) (rats of Wistar strain [7]; oral, 26 weeks): no toxicity was observed
deaths, females (rats of Wistar strain [7]; [20]): three
deaths, males (rats of Wistar strain [7]; [20]): 11 males
biochemical tests of blood and urine (rats of Wistar strain [7]; versus control group, 26 weeks): No significant changes were recognized
adverse effects in mothers, fetuses and newborns (mice): no adverse effects were noted

From patent US4068001A, “Method of medical treatment of pancreatic insufficiency” (priority 1976, dated 1978)
